Experimental data published in patent US6964772B1, “Chitosan-xanthan based polyionic hydrogels for stabilization and controlled release of vitamins” (Kemestrie Inc., priority 1998, dated 2005).

Experiment: Determination of the Vitamin C stability in the cream base at 45° C.
Type: physicochemical
Details: cream with 5-25 wt % Vitamin C, after 30 days at 45° C., protected from light
Experimental: The method consists of introducing 20 to 30 mg of freeze-dried CHITOXAN™ loaded with Vitamin C in a 50 ml centrifuge tube together with 40 ml of the extraction solvent. The mixture is magnetically stirred for 60 minutes. The suspension formed is centrifuged (4000 rpm) and the supernatant is analysed. All operations are done in absence of light.
This determination requires the establishment of a calibration curve at a maximum absorption wavelength using a UV-vis spectrophotometer. A standard is prepared with the same solution (and solvent) initially used to introduce the Vitamin C within the CHITOXAN™. Experimentation has shown an absorption maximum at 243 nm for Vitamin C at 98% purity obtained from ALDRICH.
The calibration curve is constructed at 243 nm as follows. A solution of 1.3 mg/ml of Vitamin C in the solvent is prepared in a graduated cylinder. The solution is prepared just before analysis. By successive dilutions, the absorption versus concentration calibration curve (mg/ml) is thus measured.
The concentration of Vitamin C in the supernatant obtained via extraction is determined at 243 nm using the calibration curve. […]
10 g of the preparation obtained by inclusion of CHITOXAN™—Vit. […] Samples not immediately analysed were kept frozen at −4° C.
The aliquots were analysed with the method described earlier (always using the extraction solvent). […]

O=C1O[C@H]([C@@H](O)CO)C(O)=C1O [free Vitamin C, Vitamin C]
coloration of the cream: an orange coloration appeared
degradation of Vitamin C: 98%
